In PubChem BioAssay (NCI) one finds GI50 and TGI data, which are given here for 10 compounds.

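Step 1: Grow cells in 96-well plates. Step 2: Expose to compound for 48 hours at 5 concentrations. Step 3: Interpolate endpoints linearly; if unreached, use highest concentration. The concentration for 50% growth inhibition is given as GI50. TGI: concentration producing complete growth inhibition.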

What all share (assay): NCI tumour cell line growth inhibition, 48 h
Experiment [1] relates to NCI-H226 lung.
Experiment [2] deals with MALME-3M melanoma.
Experiment [3] relates to SW-620 colon.
Experiment [4] relates to NCI-H23 lung.
Experiment [5] deals with MDA-MB-231 breast.
Experiment [6] relates to MDA-MB-435.
In experiment [7] the test system is OVCAR-5 ovarian.
In experiment [8] the test system is MCF7 breast.
In experiment [9] the test system is U251 CNS.
Experiment [10] concerns HCC-2998 colon.

On to `Clc1ccc(C2=Nn3c(nnc3-c3cc(Cl)cc(Cl)c3Cl)SC2)cc1`, for which the GI50 in [1] is 51.9 µM; in [2], 10.5 µM; in [3] it was 17.4 µM; in experiment [4], 22.1 µM; in experiment [5] it was 23.3 µM; in [6], 2.79 µM. Moreover, the GI50 in experiment [7] was 36.7 µM; in experiment [8], 11.8 µM; in experiment [9], 12.7 µM. Moreover, the TGI in experiment [1] was above 100 µM; in experiment [2], 29.2 µM; in experiment [3], above 100 µM; in experiment [4], 78.8 µM; in experiment [5], 97.1 µM; in experiment [6], 11.4 µM. Also, the TGI was above 100 µM in experiment [7], 92.7 µM in experiment [8] and 28.3 µM in experiment [9].

Regarding `Cc1cc(Nc2c3ccccc3nc3ccccc23)ccc1NS(C)(=O)=O`, the GI50 in experiment [1] was 4.41 µM; in [2], 3.4 µM; in experiment [3], 3.36 µM; in [5], 4.35 µM; in experiment [6] it was 4.26 µM; in experiment [10] it was 5.94 µM. Also, the results for the GI50 in experiment [7], in [8] and in experiment [9] were 6.14 µM, 3.99 µM and 3.17 µM, respectively. Besides, the TGI in experiment [1] is 22 µM; in [2], 10.3 µM; in experiment [3], 15.9 µM; in experiment [5], 19.7 µM; in [6] it was 25.4 µM; in [10], 20.7 µM. Besides, the figures for the TGI in experiment [7], in [8] and in experiment [9] were 22.2 µM, 18.4 µM and 14 µM, respectively.

For `COc1ccc(C[C@@H]2NC[C@@H](O)[C@@H]2OC(C)=O)cc1`, the GI50 in experiment [1] is 5.27 µM; in experiment [2], 3.97 µM; in experiment [3] it was 4.16 µM; in experiment [4], 2.76 µM; in experiment [10] it was 2.19 µM; in [7], 14.1 µM. Also, the TGI is 0.261 µM in experiment [5], 0.0883 µM in [6], above 100 µM in [7] and 0.453 µM in [9].

For `O=[N+]([O-])/C=C/c1cc2ccccc2[nH]1`, the TGI was determined as 37.7 µM in [1]; 59.8 µM in experiment [2]; 34.5 µM in experiment [3]; 30.2 µM in experiment [4]; 36.9 µM in experiment [5]; 6.95 µM in experiment [6]. Besides, the TGI was 37.1 µM in [7], 13.1 µM in experiment [8] and 25.8 µM in experiment [9].

Turning to `CC#C/C(=N\OC[C@H]1COCCN1)c1ccc2ncnc(Nc3ccc(OCc4cccc(F)c4)c(Cl)c3)c2c1`, the GI50 is 12 µM in [1]; 1.74 µM in experiment [4]; 1.72 µM in [5]; 1.67 µM in experiment [6]; 1.84 µM in experiment [10]; 1.65 µM in experiment [7]. Moreover, the GI50 in experiment [8] is 1.57 µM; in experiment [9] it was 1.71 µM. Further, the TGI in experiment [1] was 40.3 µM; in [4] it was 3.41 µM; in experiment [5] it was 3.14 µM; in experiment [6], 3.1 µM; in experiment [10], 3.41 µM; in experiment [7], 4.27 µM. Also, the TGI in experiment [8] came out at 3.05 µM; in experiment [9], 3.22 µM.

Regarding `CCCCCCCCCCCCCCCC[N+](C)(CCO)Cc1cnc[nH]1` (centres undefined), the GI50 was 1.51 µM in [1]; 2.01 µM in experiment [2]; 0.978 µM in experiment [3]; 0.858 µM in [4]; 1.48 µM in experiment [5]; 1.44 µM in [6]. Besides, the figures for the GI50 in experiment [10] and in experiment [8] were 1.14 µM and 1.87 µM, respectively. Further, the TGI in experiment [1] is 7.72 µM; in [2], 6.54 µM; in [3], 13.7 µM; in experiment [4], 5.3 µM; in experiment [5] it was 5.5 µM; in experiment [6], 3.81 µM. Also, the results for the TGI in [10] and in experiment [8] were 2.73 µM and 13.9 µM, respectively.

Regarding `O=Cc1ccc(-c2ccc(-c3nc4ccccc4o3)cc2)s1`, the GI50 in experiment [1] was 31.5 µM; in experiment [3], 71.2 µM; in [4] it was 30.2 µM; in experiment [5], 21.9 µM; in experiment [6], 24.1 µM; in experiment [10] it was 45.2 µM. Further, the GI50 in experiment [7] was 78.4 µM; in experiment [9], 29.1 µM. Further, the TGI is 90.2 µM in experiment [1]; above 100 µM in experiment [3]; above 100 µM in experiment [4]; 55.2 µM in [5]; 77.9 µM in experiment [6]; above 100 µM in experiment [10]. In addition, the figures for the TGI in experiment [7] and in experiment [9] were above 100 µM and 80.8 µM, respectively.

As to `CC(=O)O[C@@H]1[C@@H](O)C2=C3[C@]4(C)[C@@H]1C(C)(C)C(=O)C[C@@H]4[C@]3(O)[C@H](OC(C)=O)[C@@]1(C[C@@H]1C)C2=O`, the TGI in experiment [2] is 29.3 µM; in [3], 42.8 µM; in experiment [4] it was above 100 µM; in experiment [5] it was 37.7 µM; in experiment [6] it was 37.8 µM; in [10], 32.7 µM. Also, the values for the TGI in experiment [7], in experiment [8] and in experiment [9] were 54.9 µM, 47.4 µM and 40.6 µM, respectively.

Turning to `Cc1[nH]c2ccccc2c1-c1cc(-c2cc(-c3c(C)[nH]c4ccccc34)nc(N)n2)nc(N)n1`, the TGI in experiment [1], in experiment [2], in experiment [3], in experiment [4], in experiment [5] and in experiment [6] was above 100 µM throughout. Moreover, the TGI in [7], in [8] and in [9] was above 100 µM in each case.

On to `S=C(Nc1ccc(Cl)cc1)Nc1ccc(-c2nc3ccccc3o2)cc1`, for which the GI50 in experiment [2] was 23.8 µM; in experiment [3], 19.8 µM; in [4] it was 17.7 µM; in experiment [5], 10.3 µM; in [6], 18.5 µM; in experiment [10] it was 13.8 µM. Besides, the GI50 in experiment [7] was 20.4 µM; in [8] it was 17.6 µM; in experiment [9], 14.1 µM. Further, the TGI in experiment [2] is 59.9 µM; in experiment [3] it was 60.3 µM; in experiment [4] it was 41.8 µM; in [5], 35.1 µM; in [6] it was 43.9 µM; in experiment [10] it was 26.7 µM. The TGI came to 52.9 µM in [7], 51.4 µM in experiment [8] and 29.7 µM in [9].
